From ChEMBL document CHEMBL5579808, “Development of 1,5-diarylpyrazoles as EGFR/JNK-2 dual inhibitors: design, synthesis, moleecular docking, and bioactivity evaluation” (Bioorg Med Chem Lett, 2024) come the findings set out here.

The subject of assay [1] is HepG2. Description: Antiproliferative activity against human HepG2 cells by WST-8 assay. In kind it is functional, cell-based.
In assay [2] the test system is DLD-1. Kind of assay: Growth inhibition of human DLD-1 cells at 100 uM by WST-8 assay relative to control. The note with it: read-out: GI. In kind it is functional.
In assay [3] the test system is HepG2. Kind of assay: Growth inhibition of human HepG2 cells at 100 uM by WST-8 assay relative to control. In kind it is functional. As to conditions: read-out: GI.
The target of assay [4] is Mitogen-activated protein kinase 9 (Homo sapiens, UniProt P45984). Description: Inhibition of JNK2 (unknown origin) incubated for 90 mins by ELISA.
In assay [5] the test system is K562. Kind of assay: Growth inhibition of human K562 cells at 100 uM by WST-8 assay relative to control. In kind it is functional. The note with it: read-out: GI.
Assay [6] deals with HeLa. Kind of assay: Antiproliferative activity against human HeLa cells by WST-8 assay. It counts as functional, cell-based.
Assay [7] relates to HeLa. Kind of assay: Growth inhibition of human HeLa cells at 100 uM by WST-8 assay relative to control. The note with it: read-out: GI. In kind it is functional.
The target in assay [8] is Epidermal growth factor receptor (Mus musculus, UniProt Q01279). Description: Inhibition of recombinant mouse EGFR by ELISA.
Chain of Epidermal growth factor receptor (Q01279 whole entry): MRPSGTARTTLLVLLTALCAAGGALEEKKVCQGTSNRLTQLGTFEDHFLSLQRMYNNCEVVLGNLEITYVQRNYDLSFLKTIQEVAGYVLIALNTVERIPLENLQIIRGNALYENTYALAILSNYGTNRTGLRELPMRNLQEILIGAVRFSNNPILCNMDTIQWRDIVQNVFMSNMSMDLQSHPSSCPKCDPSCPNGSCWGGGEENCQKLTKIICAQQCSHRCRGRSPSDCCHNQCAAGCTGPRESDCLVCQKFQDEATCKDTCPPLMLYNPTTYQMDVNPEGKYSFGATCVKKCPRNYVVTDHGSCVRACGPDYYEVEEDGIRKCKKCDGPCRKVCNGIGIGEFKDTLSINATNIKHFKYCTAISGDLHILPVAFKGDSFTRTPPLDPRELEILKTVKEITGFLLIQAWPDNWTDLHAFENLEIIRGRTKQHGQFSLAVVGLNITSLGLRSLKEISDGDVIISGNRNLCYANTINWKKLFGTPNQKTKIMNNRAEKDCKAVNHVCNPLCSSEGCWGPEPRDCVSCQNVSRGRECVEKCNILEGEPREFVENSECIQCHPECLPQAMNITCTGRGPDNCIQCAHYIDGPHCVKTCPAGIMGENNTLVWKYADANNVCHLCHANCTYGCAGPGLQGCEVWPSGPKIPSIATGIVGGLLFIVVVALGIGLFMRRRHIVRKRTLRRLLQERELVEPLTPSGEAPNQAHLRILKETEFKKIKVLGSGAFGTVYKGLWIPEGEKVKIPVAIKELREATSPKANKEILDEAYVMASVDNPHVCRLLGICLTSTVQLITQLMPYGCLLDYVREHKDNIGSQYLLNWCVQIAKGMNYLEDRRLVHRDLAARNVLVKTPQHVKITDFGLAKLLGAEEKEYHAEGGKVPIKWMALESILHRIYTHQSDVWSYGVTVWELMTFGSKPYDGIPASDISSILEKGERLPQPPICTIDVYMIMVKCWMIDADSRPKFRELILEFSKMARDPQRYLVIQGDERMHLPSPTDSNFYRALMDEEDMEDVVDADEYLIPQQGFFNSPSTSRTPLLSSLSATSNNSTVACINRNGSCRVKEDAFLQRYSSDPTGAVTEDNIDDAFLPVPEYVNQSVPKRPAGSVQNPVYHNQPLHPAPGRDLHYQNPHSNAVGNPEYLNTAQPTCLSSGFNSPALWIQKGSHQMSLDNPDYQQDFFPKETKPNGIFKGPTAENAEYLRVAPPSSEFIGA
The subject of assay [9] is DLD-1. Kind of assay: Antiproliferative activity against human DLD-1 cells by WST-8 assay. It counts as functional, cell-based.
Assay [10] in a line: Antiproliferative activity against human SUIT-2 cells by WST-8 assay. It counts as functional, cell-based.
The nature of assay [11]: Growth inhibition of human SUIT-2 cells at 100 uM by WST-8 assay relative to control. In kind it is functional. The note with it: read-out: GI.
Assay [12] deals with K562. Description: Antiproliferative activity against human K562 cells by WST-8 assay. In kind it is functional, cell-based.
Assay [13] relates to HeLa. Kind of assay: Induction of cell cycle arrest at G2 phase in human HeLa cells at IC50 incubated for 24 hrs by PI staining based flow cytometry (reference value: 7 %). In kind it is functional.
In assay [14] the test system is HeLa. Description: Induction of apoptosis in human HeLa cells assessed as necrotic cells at half of IC50 incubated for 24 hrs by Annexin V-FITC/PI staining based flow cytometry (reference value: 1.8 %). It counts as functional.
The subject of assay [15] is HeLa. Kind of assay: Induction of apoptosis in human HeLa cells assessed as early apoptotic cells at half of IC50 incubated for 24 hrs by Annexin V-FITC/PI staining based flow cytometry (reference value: 0 %). It counts as functional.
Assay [16] deals with HeLa. Description: Induction of cell cycle arrest at S phase in human HeLa cells at IC50 incubated for 24 hrs by PI staining based flow cytometry (reference value: 8 %). It counts as functional.
Assay [17] deals with HeLa. Description: Induction of apoptosis in human HeLa cells assessed as late apoptotic cells at half of IC50 incubated for 24 hrs by Annexin V-FITC/PI staining based flow cytometry (reference value: 0 %). In kind it is functional.
Assay [18] has as its system HeLa. Kind of assay: Induction of apoptosis in human HeLa cells assessed as total cells at half of IC50 incubated for 24 hrs by Annexin V-FITC/PI staining based flow cytometry (reference value: 1.8 %). In kind it is functional.
Assay [19] deals with HeLa. Kind of assay: Induction of cell cycle arrest at G1 phase in human HeLa cells at IC50 incubated for 24 hrs by PI staining based flow cytometry (reference value: 68 %). It counts as functional.
Assay [20] concerns HeLa. Description: Induction of cell cycle arrest at G1 phase in human HeLa cells at IC50 incubated for 48 hrs by PI staining based flow cytometry (reference value: 68 %). In kind it is functional.
For assay [21], the system named is HeLa. Kind of assay: Induction of apoptosis in human HeLa cells assessed as late apoptotic cells at 2 times IC50 incubated for 24 hrs by Annexin V-FITC/PI staining based flow cytometry (reference value: 0 %). It counts as functional.
The test system of assay [22] is HeLa. Description: Induction of apoptosis in human HeLa cells assessed as necrotic cells at 2 times IC50 incubated for 24 hrs by Annexin V-FITC/PI staining based flow cytometry (reference value: 1.8 %). It counts as functional.
The test system of assay [23] is HeLa. Kind of assay: Induction of apoptosis in human HeLa cells assessed as total cells at 2 times IC50 incubated for 24 hrs by Annexin V-FITC/PI staining based flow cytometry (reference value: 1.8 %). It counts as functional.
Assay [24] deals with HeLa. Kind of assay: Induction of apoptosis in human HeLa cells assessed as early apoptotic cells at 2 times IC50 incubated for 24 hrs by Annexin V-FITC/PI staining based flow cytometry (reference value: 0 %). It counts as functional.
The test system of assay [25] is HeLa. Description: Induction of cell cycle arrest at S phase in human HeLa cells at IC50 incubated for 48 hrs by PI staining based flow cytometry (reference value: 8 %). It counts as functional.
Assay [26] deals with HeLa. Kind of assay: Induction of cell cycle arrest at G2 phase in human HeLa cells at IC50 incubated for 48 hrs by PI staining based flow cytometry (reference value: 7 %). In kind it is functional.

The structures appear in SMILES notation. Activity calls are given as the source filed them. The calls are words filed in the database; no cut-off is given here.

`Cc1ccc(-c2cc(C(=O)Nc3ccc(S(N)(=O)=O)cc3)nn2-c2ccccc2)cc1`: the 50% inhibitory concentration (IC50) in the assay with HepG2 [1] is 3.6 µM; with HeLa [6] it was 16.7 µM; in assay [8], more than 1000 µM; in the assay with DLD-1 [9], 16.1 µM; in assay [10] it was 13 µM. For the same molecule, the inhibition of growth at 100 µM in the assay with DLD-1 [2] was 99%; with HepG2 [3] it was 101%; in the assay with K562 [5], 65%; in the assay on HeLa [7], 0%; in assay [11], 96%. Besides, the inhibition entry in assay [4] was “inactive”.
For the molecule `CNC(=O)c1cc(Oc2ccc(NC(=O)Nc3ccc(Cl)c(C(F)(F)F)c3)cc2)ccn1` [SORAFENIB], in assay [8], the IC50 was 3.5 µM.
With `COc1ccc(-c2cc(C(=O)Oc3ccc(C=O)cc3OC)nn2-c2ccc(S(N)(=O)=O)cc2)cc1`, the half-inhibitory concentration (IC50) in the assay with HepG2 [1] is 7.8 µM; in [4] it was 0.9 µM; in the assay on HeLa [6], 31 µM; in the assay on K562 [12], 14.9 µM; in [8] it was more than 1000 µM; with DLD-1 [9], 5.6 µM. In [10], this molecule came in with an IC50 of 5 µM. Moreover, the inhibition of growth at 100 µM in the assay with DLD-1 [2] amounted to 104%; in the assay on HepG2 [3] it was 82%; in the assay on K562 [5], 85%; in the assay on HeLa [7], 78%; in assay [11], 95%.
In the case of `NS(=O)(=O)c1ccc(NC(=O)c2cc(-c3ccccc3)n(-c3ccccc3)n2)cc1`, the IC50 is 5.9 µM with HepG2 [1] and 18 µM in assay [10]. Besides, the inhibition of growth at 100 µM came out at 64% in the assay with DLD-1 [2]; 107% in the assay with HepG2 [3]; 89% in the assay on K562 [5]; 12% in the assay with HeLa [7]; 91% in assay [11].
`Cc1ccc(-c2cc(C(=O)Nc3ccc(S(C)(=O)=O)cc3)nn2-c2ccccc2)cc1`: the IC50 is 10 µM in the assay with HepG2 [1]; more than 200 µM in assay [4]; 63 µM in the assay on HeLa [6]; 110 µM in [8]; 22 µM in the assay with DLD-1 [9]. Further, the inhibition of growth at 100 µM in the assay on DLD-1 [2] was 87%; with HepG2 [3] it was 94%; with K562 [5], 58%; with HeLa [7], 78%; in [11], 87%.
As to `COc1cccc2c1C(=O)c1c(O)c3c(c(O)c1C2=O)C[C@@](O)(C(C)=O)C[C@@H]3O[C@H]1C[C@H](N)[C@H](O)[C@H](C)O1` [DAUNORUBICIN], the IC50 in the assay on HepG2 [1] worked out at 22 µM; in the assay with HeLa [6], 0.1 µM; in the assay with K562 [12] it was 13.3 µM; with DLD-1 [9], 30 µM; in assay [10] it was 9 µM. Further, the inhibition of growth at 100 µM in the assay on DLD-1 [2] turned out to be 84.2%; in the assay on HepG2 [3], 100%; with K562 [5] it was 100%; with HeLa [7], 100%; in [11] it was 92%.
As to `COc1cc(C=O)ccc1OC(=O)c1cc(-c2ccc(C)cc2)n(-c2ccc(S(N)(=O)=O)cc2)n1`, the Activity in the assay with HeLa [13] was 7%; in the assay with HeLa [14], 5.9%; with HeLa [15], 0.4%; with HeLa [16], 83%; in the assay on HeLa [17], 19%; with HeLa [18] it was 25%. This molecule also displayed an Activity with HeLa [19] of 4%. Further, the 50% inhibitory concentration (IC50) in the assay with HepG2 [1] was found to be 2.7 µM; in [4], 2 µM; in the assay with HeLa [6] it was 14 µM; in the assay on K562 [12], 7.6 µM; in assay [8] it was 50 µM; with DLD-1 [9], 17 µM. In [10], this molecule yielded an IC50 of 17 µM. In addition, the inhibition of growth at 100 µM in the assay with DLD-1 [2] came to 100%; in the assay with HepG2 [3], 101%; in the assay with K562 [5], 95%; with HeLa [7] it was 95%; in [11], 87%.
`NS(=O)(=O)c1ccc(NC(=O)c2cc(-c3ccc(Cl)cc3)n(-c3ccccc3)n2)cc1`: the inhibition of growth at 100 µM in the assay on DLD-1 [2] was 94%; with HepG2 [3] it was 27%; in the assay with K562 [5], 86%; in the assay with HeLa [7], 0%; in [11], 99%. The half-maximal inhibitory concentration (IC50) in [4] turned out to be 3 µM; in the assay with K562 [12], 15.4 µM; in assay [8] it was 2.7 µM; with DLD-1 [9], 29.8 µM; in assay [10], 49.7 µM.
`COc1cc(C=O)ccc1OC(=O)c1cc(-c2ccc(C)cc2)n(-c2ccccc2)n1`: the Activity in the assay on HeLa [20] came to 59%; in the assay on HeLa [13], 21%; in the assay with HeLa [21], 48%; in the assay on HeLa [22], 33%; in the assay with HeLa [23], 86%; in the assay with HeLa [16], 8%. Also, the Activity was determined as 5.9% in the assay on HeLa [24], 5% in the assay on HeLa [25], 23% in the assay with HeLa [26] and 64% in the assay on HeLa [19]. Besides, the IC50 with HepG2 [1] was determined as 8.9 µM; in the assay on HeLa [6], 15 µM; with K562 [12], 14.8 µM. Also, the inhibition of growth at 100 µM in the assay with DLD-1 [2] was found to be 70%; in the assay with HepG2 [3], 50%; with K562 [5], 79%; in the assay with HeLa [7], 84%; in [11], 89%.
Consider `CS(=O)(=O)c1ccc(NC(=O)c2cc(-c3ccc(Cl)cc3)n(-c3ccccc3)n2)cc1`, for which the Activity in the assay on HeLa [13] came out at 6%; in the assay with HeLa [21] it was 75%; in the assay with HeLa [22], 18%; with HeLa [23], 94%; in the assay with HeLa [16], 82%; with HeLa [24], 1.4%. Also, the Activity in the assay with HeLa [19] worked out at 6%. Also, the inhibition of growth at 100 µM with DLD-1 [2] was 98%; in the assay on HepG2 [3], 50%; with K562 [5] it was 88%; with HeLa [7], 101%; in [11], 94%. Further, the IC50 was more than 200 µM in assay [4]; 16 µM in the assay on HeLa [6]; 21.8 µM in the assay on K562 [12]; 1.7 µM in assay [8]; 5.7 µM in the assay with DLD-1 [9]; 25 µM in assay [10].
On to `COc1cc(C=O)ccc1OC(=O)c1cc(-c2ccccc2)n(-c2ccc(S(N)(=O)=O)cc2)n1`, for which the IC50 was 38 µM in the assay with HepG2 [1], 27 µM with HeLa [6] and 17.2 µM with K562 [12]. Moreover, the inhibition of growth at 100 µM in the assay on DLD-1 [2] amounted to 100%; in the assay on HepG2 [3] it was 84%; with K562 [5], 82%; with HeLa [7], 79%; in assay [11] it was 95%.
